Experimental data reported in the NIST ThermoML archive (doi:10.1021/je060271a).

Settings: 303.15 K, Liquid, Vibrating tube method

CCCCC(=O)OCC(COC(=O)CCCC)(COC(=O)CCCC)COC(=O)CCCC [pentaerythritol tetrapentanoate]
Settings | mass density [kg/m3]
18990 kPa | 1022.6
19023 kPa | 1022.8
19056 kPa | 1022.6
19094 kPa | 1022.8
19127 kPa | 1022.7
19159 kPa | 1022.9
19198 kPa | 1022.9
19232 kPa | 1022.8
19265 kPa | 1022.8
19304 kPa | 1022.8
19338 kPa | 1022.9
19372 kPa | 1023
19412 kPa | 1022.9
19446 kPa | 1022.9
19480 kPa | 1023
19515 kPa | 1023
19556 kPa | 1023
19590 kPa | 1023.1
19630 kPa | 1023
19702 kPa | 1023.1
19736 kPa | 1023.1
19778 kPa | 1023.2
19813 kPa | 1023.2
19856 kPa | 1023.2
19893 kPa | 1023.1
19930 kPa | 1023.2
19968 kPa | 1023.2
20013 kPa | 1023.3
20051 kPa | 1023.4
20090 kPa | 1023.2
20134 kPa | 1023.3
20161 kPa | 1023.4
20186 kPa | 1023.3
20215 kPa | 1023.3
20240 kPa | 1023.4
20265 kPa | 1023.5
20290 kPa | 1023.6
20321 kPa | 1023.4
20346 kPa | 1023.4
20370 kPa | 1023.5
20396 kPa | 1023.5
20425 kPa | 1023.6
20451 kPa | 1023.5
20481 kPa | 1023.6
20506 kPa | 1023.5
20532 kPa | 1023.6
20561 kPa | 1023.6
20587 kPa | 1023.6
20613 kPa | 1023.7
20644 kPa | 1023.6
20671 kPa | 1023.6
20697 kPa | 1023.6
20723 kPa | 1023.7
20754 kPa | 1023.6
20780 kPa | 1023.7
20806 kPa | 1023.8
20837 kPa | 1023.8
20864 kPa | 1023.9
20890 kPa | 1023.7
20920 kPa | 1023.8
20947 kPa | 1023.7
20974 kPa | 1023.8
21007 kPa | 1023.7
21030 kPa | 1023.9
21062 kPa | 1023.9
21089 kPa | 1023.8
21122 kPa | 1023.8
21149 kPa | 1023.9
21176 kPa | 1024
21208 kPa | 1024
21236 kPa | 1024
21263 kPa | 1023.8
21291 kPa | 1024
21324 kPa | 1024.1
21351 kPa | 1024.1
21384 kPa | 1024.1
21412 kPa | 1024
21440 kPa | 1024.1
21472 kPa | 1024.1
21500 kPa | 1024.2
21528 kPa | 1024.1
21557 kPa | 1024.1
21593 kPa | 1024.2
21622 kPa | 1024.2
21658 kPa | 1024.3
21688 kPa | 1024.2
21718 kPa | 1024.4
21754 kPa | 1024.3
21784 kPa | 1024.2
21814 kPa | 1024.3
21844 kPa | 1024.4
21881 kPa | 1024.2
21911 kPa | 1024.4
21942 kPa | 1024.4
21979 kPa | 1024.4
22009 kPa | 1024.5
22046 kPa | 1024.4
22077 kPa | 1024.5
22109 kPa | 1024.4
22140 kPa | 1024.5
22178 kPa | 1024.5
22210 kPa | 1024.6
22242 kPa | 1024.6
22279 kPa | 1024.6
22311 kPa | 1024.6
22343 kPa | 1024.7
22375 kPa | 1024.6
22414 kPa | 1024.6
22446 kPa | 1024.6
22478 kPa | 1024.6
22517 kPa | 1024.7
22550 kPa | 1024.8
22583 kPa | 1024.7
22622 kPa | 1024.8
22656 kPa | 1024.7
22688 kPa | 1024.7
22722 kPa | 1024.8
22761 kPa | 1024.8
22794 kPa | 1024.9
22828 kPa | 1024.9
22868 kPa | 1024.9
22901 kPa | 1024.9
22942 kPa | 1024.9
22975 kPa | 1024.9
23009 kPa | 1024.9
23043 kPa | 1025.1
23084 kPa | 1025
23119 kPa | 1025.1
23154 kPa | 1025
23195 kPa | 1025
23230 kPa | 1025.1
23265 kPa | 1025.2
23307 kPa | 1025.2
23342 kPa | 1025.2
23378 kPa | 1025.2
23413 kPa | 1025.2
23456 kPa | 1025.2
23492 kPa | 1025.3
23534 kPa | 1025.2
23572 kPa | 1025.1
23609 kPa | 1025.3
23646 kPa | 1025.4
23680 kPa | 1025.3
23726 kPa | 1025.4
23761 kPa | 1025.5
23798 kPa | 1025.6
23843 kPa | 1025.5
23878 kPa | 1025.4
23926 kPa | 1025.5
23961 kPa | 1025.6
23996 kPa | 1025.5
24033 kPa | 1025.7
24084 kPa | 1025.5
24123 kPa | 1025.6
24162 kPa | 1025.7
24202 kPa | 1025.6
24250 kPa | 1025.7
24285 kPa | 1025.8
24316 kPa | 1025.7
24353 kPa | 1025.8
24383 kPa | 1025.8
